Seven compounds from patent US12428394B2, “2,4-disubstituted pyrimidine derivative, preparation method therefor and use thereof” (CHENGDU ZENITAR BIOMEDICAL TECHNOLOGY CO., LTD., priority 2019, dated 2025) can be followed below.

The test system of assay [1] is MV4-11 cells (FLT3-ITD+/+). The assay is described as follows: Inhibition of cell proliferation by MTT experiment, MV4-11. Conditions: Homo sapiens, MV4-11; MTT, 72 h; read-out: IC50 value on cell proliferation inhibition, MV4-11 FLT3-ITD+/+. In kind it is cell-based, human. The method, boiled down: (§1)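 MTT assay in MV4-11, MOLM-13 (FLT3-ITD) and SET-2 (JAK2 V617F) cells at 10,000–15,000 cells/well in IMDM with 10% FBS. Cells are exposed to compound for 72 h at 37 °C, then to MTT for 1–3 h. IC50 is fitted from inhibition rates across concentrations.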

Assay [2] deals with MOLM-13 cells (FLT3-ITD-/+). The assay is described as follows: Inhibition of cell proliferation by MTT experiment, MOLM-13. Type of assay: cell-based, human. The following applies: Homo sapiens, MOLM-13; MTT, 72 h; read-out: IC50 value on cell proliferation inhibition, MOLM-13 FLT3-ITD-/+. The method, boiled down:
as §1

The test system of assay [3] is SET-2 cells (JAK2 V617F). Description: Inhibition of cell proliferation by MTT experiment, SET-2. In kind it is cell-based. The following applies: Homo sapiens, SET-2; MTT, 72 h; read-out: IC50 value on cell proliferation inhibition, SET-2 (V617F). The method in brief:
as §1

Assay [4] concerns the target T1, FLT3 (Homo sapiens, UniProt P36888).
T1 construct: purchased Eurofins
T1 sequence (P36888 27-993): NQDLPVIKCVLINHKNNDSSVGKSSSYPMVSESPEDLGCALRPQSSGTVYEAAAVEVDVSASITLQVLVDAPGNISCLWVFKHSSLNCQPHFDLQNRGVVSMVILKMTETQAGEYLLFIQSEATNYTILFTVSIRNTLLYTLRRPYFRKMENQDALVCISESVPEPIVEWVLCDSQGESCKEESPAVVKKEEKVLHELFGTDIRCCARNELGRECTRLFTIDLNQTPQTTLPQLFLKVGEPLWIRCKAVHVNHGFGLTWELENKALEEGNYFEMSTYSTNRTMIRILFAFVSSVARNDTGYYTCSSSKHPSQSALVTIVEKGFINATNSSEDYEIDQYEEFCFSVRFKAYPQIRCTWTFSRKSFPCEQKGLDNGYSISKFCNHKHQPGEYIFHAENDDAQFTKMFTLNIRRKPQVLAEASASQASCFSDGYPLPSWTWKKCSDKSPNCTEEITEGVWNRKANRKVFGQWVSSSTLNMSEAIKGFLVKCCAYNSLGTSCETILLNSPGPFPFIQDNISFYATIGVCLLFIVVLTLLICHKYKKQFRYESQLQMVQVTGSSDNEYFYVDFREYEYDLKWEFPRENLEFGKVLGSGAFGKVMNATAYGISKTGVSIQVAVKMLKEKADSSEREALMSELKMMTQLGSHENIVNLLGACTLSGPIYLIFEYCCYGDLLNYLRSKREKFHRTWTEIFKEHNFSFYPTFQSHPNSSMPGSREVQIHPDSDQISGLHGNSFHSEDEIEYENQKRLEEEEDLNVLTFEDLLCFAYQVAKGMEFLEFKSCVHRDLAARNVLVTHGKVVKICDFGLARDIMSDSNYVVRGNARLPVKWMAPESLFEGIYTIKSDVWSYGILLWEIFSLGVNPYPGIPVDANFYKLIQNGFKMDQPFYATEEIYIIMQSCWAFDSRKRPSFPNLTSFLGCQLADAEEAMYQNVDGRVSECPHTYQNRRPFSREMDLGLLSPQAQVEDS
Description: In vitro kinase activity experiment, FLT3. In kind it is biochemical. Conditions: for inhibition at 0.5 µM: 40 min, inhibition rate of enzyme at 500 nM, measured by Eurofins, read-out: Kinase activity @ 500 nM (%) FLT3. The method, boiled down:
(§2)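 Reactions began on MgATP addition after the kinase, substrate, γ33P-ATP, 10 mM magnesium acetate and compound series were mixed in MOPS buffer pH 7.0 with EDTA and MnCl2. After 40 min at room temperature, phosphate quench, filter-mat capture and washing, incorporated 33P was measured by scintillation counting.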

Assay [5] concerns the target T2, JAK2 (Homo sapiens, UniProt O60674).
T2 construct: purchased Eurofins
The assay is described as follows: In vitro kinase activity experiment, JAK2. Type of assay: biochemical. The following applies: for Kinase activity @ 500 nM (%) JAK2: inhibition rate of enzyme at 500 nM, measured by Eurofins. The method, boiled down: as §2

Assay [6] deals with T3, JAK1 (Homo sapiens, UniProt P23458).
T3 construct: purchased Eurofins
Description: In vitro kinase activity experiment, JAK1. Type of assay: biochemical. The protocol:
(§3) Buffer solution ([…], pH 7.0, 0.2 mm EDTA, 10 mM mncl2), kinase to be tested, substrate of kinase to be tested, 10 mM magnesium acetate and γ33P-ATP solution, and compounds with different concentrations were added to a reaction tube in turn, then MgATP was added to initiate the enzyme reaction process, and incubated at room temperature for 40 min. Then, the reaction was terminated with 5 μl of […], and 10 μl of the reaction solution was titrated onto the Filtermat A membrane, washed with 75 mM phosphate solution for three times, each time for 5 min., and then washed with methanol once. Finally, the Filtermat A membrane was dried and the scintillation count was carried out.

Assay [7] deals with T4, JAK3 (Homo sapiens, UniProt P52333).
T4 construct: purchased Eurofins
T4 sequence (P52333 1-1124): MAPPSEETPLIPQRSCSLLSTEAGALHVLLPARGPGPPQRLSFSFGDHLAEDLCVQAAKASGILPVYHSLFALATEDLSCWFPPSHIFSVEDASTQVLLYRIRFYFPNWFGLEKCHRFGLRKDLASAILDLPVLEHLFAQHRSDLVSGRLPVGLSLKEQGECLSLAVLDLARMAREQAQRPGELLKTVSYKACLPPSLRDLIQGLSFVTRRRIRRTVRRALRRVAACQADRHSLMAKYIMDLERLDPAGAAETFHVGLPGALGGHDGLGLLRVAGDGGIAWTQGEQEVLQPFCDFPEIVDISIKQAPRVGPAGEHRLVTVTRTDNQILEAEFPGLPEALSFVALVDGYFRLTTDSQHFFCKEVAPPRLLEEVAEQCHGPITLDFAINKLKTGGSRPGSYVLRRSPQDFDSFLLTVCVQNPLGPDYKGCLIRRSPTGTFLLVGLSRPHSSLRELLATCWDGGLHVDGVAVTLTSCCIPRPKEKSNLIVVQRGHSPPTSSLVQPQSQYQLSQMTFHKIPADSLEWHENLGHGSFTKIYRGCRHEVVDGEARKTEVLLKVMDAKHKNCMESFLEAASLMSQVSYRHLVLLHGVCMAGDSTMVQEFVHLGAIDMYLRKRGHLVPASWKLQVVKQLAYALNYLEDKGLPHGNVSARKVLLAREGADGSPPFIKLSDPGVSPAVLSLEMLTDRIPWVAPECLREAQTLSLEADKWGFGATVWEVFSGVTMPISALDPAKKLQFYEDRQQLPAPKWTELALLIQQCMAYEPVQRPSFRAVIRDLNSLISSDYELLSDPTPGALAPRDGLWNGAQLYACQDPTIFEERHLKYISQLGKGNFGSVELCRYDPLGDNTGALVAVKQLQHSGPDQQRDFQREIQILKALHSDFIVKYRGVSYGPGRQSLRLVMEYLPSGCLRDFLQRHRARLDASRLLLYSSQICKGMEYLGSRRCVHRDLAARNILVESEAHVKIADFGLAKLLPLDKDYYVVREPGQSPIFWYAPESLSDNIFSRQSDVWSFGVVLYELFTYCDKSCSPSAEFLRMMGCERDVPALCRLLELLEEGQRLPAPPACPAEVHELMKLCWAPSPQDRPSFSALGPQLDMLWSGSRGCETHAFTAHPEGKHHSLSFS
Description: In vitro kinase activity experiment, JAK3. In kind it is biochemical. The protocol: as §3

T2 sequence (O60674 whole entry): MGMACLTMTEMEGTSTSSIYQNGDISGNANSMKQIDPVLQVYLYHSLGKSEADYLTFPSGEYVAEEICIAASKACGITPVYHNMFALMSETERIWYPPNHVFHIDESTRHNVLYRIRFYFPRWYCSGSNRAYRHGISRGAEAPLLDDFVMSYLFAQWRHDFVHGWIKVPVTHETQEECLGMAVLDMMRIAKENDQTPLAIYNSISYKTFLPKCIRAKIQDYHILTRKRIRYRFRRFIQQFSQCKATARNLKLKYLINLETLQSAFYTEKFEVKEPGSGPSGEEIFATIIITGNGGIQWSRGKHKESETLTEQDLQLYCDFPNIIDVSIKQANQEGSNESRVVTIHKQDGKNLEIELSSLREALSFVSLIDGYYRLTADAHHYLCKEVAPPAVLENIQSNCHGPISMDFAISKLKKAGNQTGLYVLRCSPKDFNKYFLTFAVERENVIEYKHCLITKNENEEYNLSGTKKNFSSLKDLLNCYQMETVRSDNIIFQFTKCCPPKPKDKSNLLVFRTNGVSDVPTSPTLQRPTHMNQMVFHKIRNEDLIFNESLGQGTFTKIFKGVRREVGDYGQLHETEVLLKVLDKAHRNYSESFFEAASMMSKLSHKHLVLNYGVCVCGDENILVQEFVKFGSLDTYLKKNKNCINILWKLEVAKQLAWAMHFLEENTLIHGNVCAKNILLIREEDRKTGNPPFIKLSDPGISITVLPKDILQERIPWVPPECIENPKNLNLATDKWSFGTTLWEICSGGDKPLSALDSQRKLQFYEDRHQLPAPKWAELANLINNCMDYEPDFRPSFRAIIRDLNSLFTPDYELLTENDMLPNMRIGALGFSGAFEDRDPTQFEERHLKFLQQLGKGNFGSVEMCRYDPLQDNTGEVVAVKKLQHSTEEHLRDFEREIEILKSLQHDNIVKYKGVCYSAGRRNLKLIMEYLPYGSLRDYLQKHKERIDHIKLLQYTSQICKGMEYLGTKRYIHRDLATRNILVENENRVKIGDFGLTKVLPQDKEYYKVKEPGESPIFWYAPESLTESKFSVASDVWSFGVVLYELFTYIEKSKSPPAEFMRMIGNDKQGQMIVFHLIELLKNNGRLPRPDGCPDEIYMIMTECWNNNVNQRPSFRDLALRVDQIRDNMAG
T3 sequence (P23458 whole entry): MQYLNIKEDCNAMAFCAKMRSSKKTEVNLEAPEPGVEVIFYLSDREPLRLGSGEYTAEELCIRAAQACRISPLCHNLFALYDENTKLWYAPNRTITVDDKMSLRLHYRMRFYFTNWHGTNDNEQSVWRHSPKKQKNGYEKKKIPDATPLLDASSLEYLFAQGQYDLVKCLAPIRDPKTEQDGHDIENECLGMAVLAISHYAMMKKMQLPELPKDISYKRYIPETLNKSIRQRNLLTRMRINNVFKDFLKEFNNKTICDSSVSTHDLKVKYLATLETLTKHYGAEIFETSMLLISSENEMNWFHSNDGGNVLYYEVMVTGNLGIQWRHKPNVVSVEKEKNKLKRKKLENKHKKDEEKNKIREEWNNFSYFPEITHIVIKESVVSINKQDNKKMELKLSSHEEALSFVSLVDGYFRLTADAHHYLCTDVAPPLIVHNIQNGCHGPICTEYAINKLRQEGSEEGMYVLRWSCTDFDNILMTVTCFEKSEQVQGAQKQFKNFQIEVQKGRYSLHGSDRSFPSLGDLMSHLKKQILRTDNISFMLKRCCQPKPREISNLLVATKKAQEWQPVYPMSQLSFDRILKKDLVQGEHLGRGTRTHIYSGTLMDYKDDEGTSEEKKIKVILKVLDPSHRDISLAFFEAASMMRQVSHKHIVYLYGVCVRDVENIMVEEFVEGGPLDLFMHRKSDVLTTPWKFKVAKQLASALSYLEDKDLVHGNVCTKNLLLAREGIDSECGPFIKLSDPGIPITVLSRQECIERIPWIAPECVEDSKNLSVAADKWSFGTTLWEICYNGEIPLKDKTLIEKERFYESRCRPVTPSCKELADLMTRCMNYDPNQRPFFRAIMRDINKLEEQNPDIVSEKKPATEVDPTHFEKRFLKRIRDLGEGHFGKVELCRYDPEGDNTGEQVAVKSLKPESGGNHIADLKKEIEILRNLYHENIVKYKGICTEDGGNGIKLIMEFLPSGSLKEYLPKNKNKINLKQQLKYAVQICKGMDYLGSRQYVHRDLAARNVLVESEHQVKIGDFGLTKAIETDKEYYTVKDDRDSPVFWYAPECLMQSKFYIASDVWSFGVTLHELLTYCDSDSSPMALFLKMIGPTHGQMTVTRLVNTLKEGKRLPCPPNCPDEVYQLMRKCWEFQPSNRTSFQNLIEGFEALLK

`Cc1cnc(Nc2ccc(N3CCC(N(C)C)CC3)c(F)c2)nc1-c1cnn(C(C)C)c1` [CLJ-38, 5-methyl-N-(3-fluoro-4-(4-dimethylaminopiperidine-1-yl)phenyl)-4-(1-isopropyl-1H-pyrazole-4-yl) pyrimidine-2-amine]: the IC50 in assay [1] was 10 to 100 nM; in assay [2], 100 to 1000 nM; in assay [3], 100 to 1000 nM; in assay [4], 9 nM; in assay [5], 2 nM; in assay [6], 58 nM. Besides, the inhibition at 0.5 µM in assay [4] came out at 72%. In assay [5], the “Kinase activity @ 500 nM (%) JAK2” value turned out to be 93%.
With `Cc1cnc(Nc2ccc(N3CCC(N(C)CC4CC4)CC3)c(F)c2)nc1-c1cnn(C(C)C)c1` [CLJ-52, 5-methyl-N-(3-fluoro-4-(4-N-cyclopropanemethyl-4-N-methylaminopiperidine-1-yl)phenyl)-4-(1-isopropyl-1H-pyrazole-4-yl) pyrimidine-2-amine], the IC50 is 1 to 10 nM in assay [1]; 10 to 100 nM in assay [2]; 100 to 1000 nM in assay [3]; 9 nM in assay [4]; 1 nM in assay [5]; 47 nM in assay [6]. In assay [7], this compound showed an IC50 of 23 nM. Further, the inhibition at 0.5 µM in assay [4] stood at 102%. In assay [5], the “Kinase activity @ 500 nM (%) JAK2” value is reported as 106%.
Consider `Cc1cnc(Nc2ccc(N3CCC(N(C)CCO)CC3)c(F)c2)nc1-c1cn(C(C)C)nc1S(C)(=O)=O` [CLJ-91, 5-methyl-N-(3-fluoro-4-(4-N-hydroxyethyl-4-N-methylaminopiperidine-1-yl)phenyl)-4-(1-isopropyl-3-methylsulfonyl-1H-pyrazole-4-yl) pyrimidine-2-amine], for which the IC50 in assay [1] was 10 to 100 nM; in assay [2], 10 to 100 nM; in assay [3] it was 100 to 1000 nM; in assay [4], 11 nM; in assay [5], 3 nM; in assay [6], 121 nM. In assay [7], this compound returned an IC50 of 103 nM. Also, the inhibition at 0.5 µM in assay [4] was 97%. Further, the “Kinase activity @ 500 nM (%) JAK2” value in assay [5] stood at 100%.
Consider `Cc1cnc(Nc2ccc(NS(=O)(=O)c3ccc(C(F)(F)F)cc3)c(F)c2)nc1-c1cnn(C(C)C)c1` [CLJ-94, N-(2-fluoro-4-((4-(1-isopropyl-1H-pyrazole-4-yl)-5-methylpyrimidine-2-yl)amino)phenyl)-4-(trifluoromethyl) benzenesulfonamide], for which the IC50 in assay [1] was 10 to 100 nM; in assay [2], 10 to 100 nM; in assay [3] it was 100 to 1000 nM; in assay [4], 15 nM; in assay [5] it was 2 nM; in assay [6] it was 76 nM. In assay [7], the IC50 is 39 nM. For the same compound, in assay [4], the inhibition at 0.5 µM worked out at 94%. For the same compound, the “Kinase activity @ 500 nM (%) JAK2” value in assay [5] stood at 99%.
For the compound `Cc1cnc(Nc2ccc(NC(=O)[C@H]3C[C@H](F)CN3)c(F)c2)nc1-c1cnn(C(C)C)c1` [CLJ-97, (2R,4S)-4-fluoro-N-(2-fluoro-4-((4-(1-isopropyl-1H-pyrazole-4-yl)-5-methylpyrimidine-2-yl)amino)phenyl) pyrrolidine-2-carboxamide], the IC50 in assay [1] fell in the range of 10 to 100 nM; in assay [2] it was 10 to 100 nM; in assay [3], 100 to 1000 nM. Besides, in assay [4], the inhibition at 0.5 µM turned out to be 101%. Besides, the “Kinase activity @ 500 nM (%) JAK2” value in assay [5] is recorded as 99%.
As for `Cc1cnc(Nc2ccc(NC(=O)CN3CCS(=O)(=O)CC3)c(F)c2)nc1-c1cnn(C(C)C)c1` [CLJ-98, 2-(1,1-dioxthiomorpholine)-N-(2-fluoro-4-((4-(1-isopropyl-1H-pyrazol-4-yl)-5-methylpyrimidine-2-yl)amino)phenyl) acetamide], the figures for the IC50 in assay [1], in assay [2] and in assay [3] were 10 to 100 nM, 10 to 100 nM and 100 to 1000 nM, respectively. Besides, in assay [4], the inhibition at 0.5 µM was found to be 95%. For the same compound, the “Kinase activity @ 500 nM (%) JAK2” value in assay [5] is listed as 97%.
As for `Cc1cnc(Nc2ccc(S(=O)(=O)NC3CC3)cc2)nc1-c1cnn(C(C)C)c1` [CLJ-99, N-cyclopropyl-4-((4-(1-isopropyl-1H-pyrazol-4-yl)-5-methylpyrimidine-2-yl)amino) benzenesulfonamide], the IC50 in assay [1] is 10 to 100 nM; in assay [2], 10 to 100 nM; in assay [3], 100 to 1000 nM. Besides, in assay [4], the inhibition at 0.5 µM turned out to be 97%. Further, in assay [5], the “Kinase activity @ 500 nM (%) JAK2” value came to 100%.
